For data set [1], the system named is Mouse sarcoma S180 cells. Nature of the data set: Antitumor activity in mouse cancer cell transplant model. It counts as in vivo. Conditions: ddY mice; for tumor weight, % of that of the control group / weight loss, diarrhea, visual abnormalities in organs: once every two days, 7 times; for tumor weight, % of that of the control group: S180; for weight loss, diarrhea, visual abnormalities in organs: all dose groups; for weight loss, diarrhea, visual abnormalities in organs / antitumor activity: oral; for antitumor activity: S180 transplant model. The method, then:
A suspension of the test compound analog-k5 was prepared at predetermined concentrations in 1% CMC. The vehicle (1% CMC) was administered to the control group.
Mouse sarcoma S180 cells were prepared as a suspension of the density of 1×10^7 cells/mL in a serum-free RPMI culture medium and the suspension was kept on ice. Then, 100 μL (1×10^6 cells) each of the cell suspension was subcutaneously inoculated to the ventral side in female ddY mice (5-week old, six mice/group) with an injection needle of 23G. The mice were maintained for one week for engraftment of the […]. The test compound (10 mg/kg, 25 mg/kg and 50 mg/kg) or the vehicle (1% CMC) was orally administered on a schedule of once every two days, 7 times in total. The antitumor activity was evaluated as follows: one day after the final administration, tumors were isolated and weighed and then the tumor weight was compared between the test compound administration groups and the control group. Significance analysis was performed using a Dunnett's test at a significance level of 5%.
Analog-f9, which is represented by formula (VI), and analog-k13, which is represented by formula (CI), were used as the test compounds, and both were evaluated for the antitumor activity in a mouse cancer cell transplant model according to the same method as described in Example 6. However, the number of mice per group was changed to four, and the doses of test compounds were changed to 3 mg/kg, 10 mg/kg and 25 mg/kg.

In data set [2] the test system is human prostate cancer DU145 cells. Nature of the data set: Selective inhibitory activity on hypoxic cancer cell growth (MTT, hypoxic conditions 1% O2). Conditions: for selective inhibitory activity on hypoxic cell growth: 24 h, MTT. It counts as cell-based. The method, then: (§1) Analog-k5, which is represented by formula (II), and analog-k6, which is represented by formula (III), were used as test compounds and furospinosulin-1 was used as the control compound. The test compounds and the control compound were separately dissolved in EtOH, and the respective solutions were prepared at predetermined concentrations. The cells used were human prostate cancer DU145 cells. Analog-k6 was synthesized according to the method described in Example 1 for synthesis of analog-k5 except for using 3-bromothiophene instead of 3-bromofuran.
To each well of 96-well multiwell plates, 200 μL (1×10^4 cells/well) of a DU145 cell suspension was added, and preculture was performed under conditions of 5% CO2 and 37° C. for 4 hours. Then, the multiwell plates were placed in a hypoxic culture chamber (manufactured by Mitsubishi Gas Chemical Company, Inc.) of 1% O2, 5% CO2 and 94% N2 (hypoxic conditions) and culture was performed for 12 hours. Then, the test compound solutions in EtOH were added to the corresponding wells in a volume of 2 μL per well, and culture was further continued under hypoxic conditions for 24 hours. After 24 hours of culture, MTT (3-(4,5-dimethylthiazol-2-yl)-2,5-diphenyltetrazolium bromide) reagent prepared at 200 μg/mL was added in a volume of 50 μL per well, and culture was performed under conditions of 5% CO2 and 37° C. for 3 hours. Next, after removal of the culture medium, the resulting MTT formazan was extracted with 200 μL of DMSO per well. The amount of the formazan dye was quantified by a colorimetric method (OD 560 nm) and the ratio of growth inhibition was calculated.
(§2) Analog-f9, which is represented by formula (VI), and analog-k13, which is represented by formula (CI), were used as the test compounds, and both were evaluated for the selective inhibitory activity on hypoxic cancer cell growth according to the same method as described in Example 5.

Data set [3] has the same test system. In words: Inhibitory activity on normoxic cell growth (MTT). Conditions: for inhibitory activity on normoxic cell growth / inhibitory activity on normoxic cell growth as compared with furospinosulin-1: DU145; for inhibitory activity on normoxic cell growth as compared with furospinosulin-1: in a high dose. It counts as cell-based. The procedure: as §1
Meanwhile, the inhibitory activity of the test compounds on normoxic cell growth was measured in the following manner. To each well of 96-well multiwell plates, 200 μL (1×10^4 cells/well) of a DU145 cell suspension was added, and culture was performed under conditions of 5% CO2 and 37° C. for 12 hours. Then, the test compound solutions in EtOH were added to the corresponding wells in a volume of 2 μL per well, and culture was further continued under the same conditions for 24 hours. After 24 hours of culture, as is the case in hypoxic conditions, the MTT reagent was added and finally the ratio of growth inhibition was calculated.
as §2

In data set [4] the test system is Mouse sarcoma S180 cells. The note with it: mice subcutaneously inoculated with S180 cells; Non Patent Literature 4; cited from earlier work.
Data set [5] concerns insulin-like growth factor 2 (IGF-2). The note with it: mechanism of action; Non Patent Literature 4; cited from earlier work.
Data set [6] deals with human prostate cancer DU145 cells. Conditions: Non Patent Literature 4; cited from earlier work.
Where [7] appears, read: at 1000 μM, DU145, hypoxic (1% O2) vs normoxic.

“Also recorded” adds a separate entry of the source.

In the case of `CC(C)=CCC/C(C)=C/CC/C(C)=C/CC/C(C)=C/CC/C(C)=C/CCc1ccsc1` [analog-f9], the results for the “tumor weight, % of that of the control group” value (shortened to “tumor weight, %”) in data set [1] (10 mg/kg oral) and in data set [1] (25 mg/kg oral) were 29% and 18%, respectively. Further, the “weight loss, diarrhea, visual abnormalities in organs” value in data set [1] was “In no administration groups, regardless of the kind of test compound, weight loss or diarrhea, or visual abnormalities in organs of the mice were observed”. Further, the “selective inhibitory activity on hypoxic cell growth” value (shortened to “selective inhibitory activity”) in data set [2] (setting [7]) is reported as “showed selective inhibitory activity on hypoxic cell growth”. The “inhibitory activity on normoxic cell growth” value in data set [3] (concentrations of 10 μM or lower) is reported as “hardly inhibits normoxic cell growth”; in data set [3] (concentrations of 100 μM or lower), “remarkably low inhibitory activity on normoxic cell growth”. For the same molecule, the “inhibitory activity on normoxic cell growth as compared with furospinosulin-1” value in data set [3] is “lower inhibitory activity on normoxic cell growth”.
Turning to `CC(C)=CCC/C(C)=C/CC/C(C)=C/CC/C=C/CCc1ccoc1` [analog-k5], the “tumor weight, %” value in data set [1] (10 mg/kg oral) is 70%; in data set [1] (25 mg/kg oral), 41%; in data set [1] (50 mg/kg oral) it was 28%. For the same molecule, the “weight loss, diarrhea, visual abnormalities in organs” value in data set [1] is “In no administration groups, weight loss or diarrhea, or visual abnormalities in organs of the mice were observed”. Further, the antitumor activity result in data set [1] was “showed marked antitumor activity”. The “selective inhibitory activity” value in data set [2] (setting [7]) was “showed selective inhibitory activity on hypoxic cell growth”. In addition, the “inhibitory activity on normoxic cell growth as compared with furospinosulin-1” value in data set [3] is “lower inhibitory activity on normoxic cell growth”.
On to `CC(C)=CCC/C(C)=C/CC/C(C)=C/CC/C=C/CCc1ccsc1` [analog-k6], for which, in data set [2] (setting [7]), the “selective inhibitory activity” value is “showed selective inhibitory activity on hypoxic cell growth”. Besides, the “inhibitory activity on normoxic cell growth as compared with furospinosulin-1” value in data set [3] is listed as “lower inhibitory activity on normoxic cell growth”.
For the molecule `C#CCC/C(C)=C/CC/C(C)=C/CC/C(C)=C/CC/C(C)=C/CCc1ccoc1` [analog-k13], the figures for the “tumor weight, %” value in data set [1] (3 mg/kg oral), in data set [1] (10 mg/kg oral) and in data set [1] (25 mg/kg oral) were 70%, 41% and 28%, respectively. Further, the “weight loss, diarrhea, visual abnormalities in organs” value in data set [1] was “In no administration groups, regardless of the kind of test compound, weight loss or diarrhea, or visual abnormalities in organs of the mice were observed”. In addition, in data set [1], the antitumor activity result was “showed marked antitumor activity”. Further, in data set [2] (setting [7]), the “selective inhibitory activity” value was “showed selective inhibitory activity on hypoxic cell growth”. For the same molecule, in data set [2] (entire range of tested concentrations, DU145), the “selective inhibition of hypoxic cell growth compared with furospinosulin-1” value is “stronger than that of furospinosulin-1”. Moreover, in data set [3], the “inhibitory activity on normoxic cell growth as compared with furospinosulin-1” value is “lower inhibitory activity on normoxic cell growth”.
For the molecule `CC(C)=CCC/C(C)=C/CC/C(C)=C/CC/C(C)=C/CCc1ccoc1` [furospinosulin-1, reference compound], the “in vivo tumor weight as compared with the control” value in data set [4] is reported as “significantly reduces in vivo tumor weight”. The “selective inhibitory activity” value in data set [2] (setting [7]) was “equal growth inhibitory activity against normoxic cells and hypoxic cells; also recorded: not selective for hypoxic cells”; in data set [2] (concentrations of 300 μM or lower, DU145, hypoxic vs normoxic), “showed selective inhibitory activity on hypoxic cell growth”. Besides, in data set [5], the “hypoxia-inducible expression of IGF-2” value is recorded as “inhibition of hypoxia-inducible expression of insulin-like growth factor 2 (IGF-2)”. Moreover, in data set [6], the “in vitro cancer cell growth inhibition, hypoxia selectivity” value is listed as “inhibits in vitro cancer cell growth in a hypoxia-selective manner”. The “growth inhibitory activity against normoxic cells” value in data set [3] (at 1000 μM, DU145, 24 h, MTT) was “showed growth inhibitory activity even against normoxic cells”.

Source of the values: patent US9371301B2, “Prenylarene compound and use thereof” (Osaka University, priority 2010, dated 2016).
